# Data published in BindingDB's records for PubMed 29751237 (University of Kwazulu-Natal, 2018).
# Biological target: Maltase-glucoamylase (Homo sapiens, UniProt O43451)
# Assay: Inhibition of alpha-glucosidase (unknown origin) using p-nitrophenyl-alpha-D-glucopyranoside as substrate incubated for 30 mins by spectrophotometric analysis
# Maltase-glucoamylase, sequence (O43451 whole entry): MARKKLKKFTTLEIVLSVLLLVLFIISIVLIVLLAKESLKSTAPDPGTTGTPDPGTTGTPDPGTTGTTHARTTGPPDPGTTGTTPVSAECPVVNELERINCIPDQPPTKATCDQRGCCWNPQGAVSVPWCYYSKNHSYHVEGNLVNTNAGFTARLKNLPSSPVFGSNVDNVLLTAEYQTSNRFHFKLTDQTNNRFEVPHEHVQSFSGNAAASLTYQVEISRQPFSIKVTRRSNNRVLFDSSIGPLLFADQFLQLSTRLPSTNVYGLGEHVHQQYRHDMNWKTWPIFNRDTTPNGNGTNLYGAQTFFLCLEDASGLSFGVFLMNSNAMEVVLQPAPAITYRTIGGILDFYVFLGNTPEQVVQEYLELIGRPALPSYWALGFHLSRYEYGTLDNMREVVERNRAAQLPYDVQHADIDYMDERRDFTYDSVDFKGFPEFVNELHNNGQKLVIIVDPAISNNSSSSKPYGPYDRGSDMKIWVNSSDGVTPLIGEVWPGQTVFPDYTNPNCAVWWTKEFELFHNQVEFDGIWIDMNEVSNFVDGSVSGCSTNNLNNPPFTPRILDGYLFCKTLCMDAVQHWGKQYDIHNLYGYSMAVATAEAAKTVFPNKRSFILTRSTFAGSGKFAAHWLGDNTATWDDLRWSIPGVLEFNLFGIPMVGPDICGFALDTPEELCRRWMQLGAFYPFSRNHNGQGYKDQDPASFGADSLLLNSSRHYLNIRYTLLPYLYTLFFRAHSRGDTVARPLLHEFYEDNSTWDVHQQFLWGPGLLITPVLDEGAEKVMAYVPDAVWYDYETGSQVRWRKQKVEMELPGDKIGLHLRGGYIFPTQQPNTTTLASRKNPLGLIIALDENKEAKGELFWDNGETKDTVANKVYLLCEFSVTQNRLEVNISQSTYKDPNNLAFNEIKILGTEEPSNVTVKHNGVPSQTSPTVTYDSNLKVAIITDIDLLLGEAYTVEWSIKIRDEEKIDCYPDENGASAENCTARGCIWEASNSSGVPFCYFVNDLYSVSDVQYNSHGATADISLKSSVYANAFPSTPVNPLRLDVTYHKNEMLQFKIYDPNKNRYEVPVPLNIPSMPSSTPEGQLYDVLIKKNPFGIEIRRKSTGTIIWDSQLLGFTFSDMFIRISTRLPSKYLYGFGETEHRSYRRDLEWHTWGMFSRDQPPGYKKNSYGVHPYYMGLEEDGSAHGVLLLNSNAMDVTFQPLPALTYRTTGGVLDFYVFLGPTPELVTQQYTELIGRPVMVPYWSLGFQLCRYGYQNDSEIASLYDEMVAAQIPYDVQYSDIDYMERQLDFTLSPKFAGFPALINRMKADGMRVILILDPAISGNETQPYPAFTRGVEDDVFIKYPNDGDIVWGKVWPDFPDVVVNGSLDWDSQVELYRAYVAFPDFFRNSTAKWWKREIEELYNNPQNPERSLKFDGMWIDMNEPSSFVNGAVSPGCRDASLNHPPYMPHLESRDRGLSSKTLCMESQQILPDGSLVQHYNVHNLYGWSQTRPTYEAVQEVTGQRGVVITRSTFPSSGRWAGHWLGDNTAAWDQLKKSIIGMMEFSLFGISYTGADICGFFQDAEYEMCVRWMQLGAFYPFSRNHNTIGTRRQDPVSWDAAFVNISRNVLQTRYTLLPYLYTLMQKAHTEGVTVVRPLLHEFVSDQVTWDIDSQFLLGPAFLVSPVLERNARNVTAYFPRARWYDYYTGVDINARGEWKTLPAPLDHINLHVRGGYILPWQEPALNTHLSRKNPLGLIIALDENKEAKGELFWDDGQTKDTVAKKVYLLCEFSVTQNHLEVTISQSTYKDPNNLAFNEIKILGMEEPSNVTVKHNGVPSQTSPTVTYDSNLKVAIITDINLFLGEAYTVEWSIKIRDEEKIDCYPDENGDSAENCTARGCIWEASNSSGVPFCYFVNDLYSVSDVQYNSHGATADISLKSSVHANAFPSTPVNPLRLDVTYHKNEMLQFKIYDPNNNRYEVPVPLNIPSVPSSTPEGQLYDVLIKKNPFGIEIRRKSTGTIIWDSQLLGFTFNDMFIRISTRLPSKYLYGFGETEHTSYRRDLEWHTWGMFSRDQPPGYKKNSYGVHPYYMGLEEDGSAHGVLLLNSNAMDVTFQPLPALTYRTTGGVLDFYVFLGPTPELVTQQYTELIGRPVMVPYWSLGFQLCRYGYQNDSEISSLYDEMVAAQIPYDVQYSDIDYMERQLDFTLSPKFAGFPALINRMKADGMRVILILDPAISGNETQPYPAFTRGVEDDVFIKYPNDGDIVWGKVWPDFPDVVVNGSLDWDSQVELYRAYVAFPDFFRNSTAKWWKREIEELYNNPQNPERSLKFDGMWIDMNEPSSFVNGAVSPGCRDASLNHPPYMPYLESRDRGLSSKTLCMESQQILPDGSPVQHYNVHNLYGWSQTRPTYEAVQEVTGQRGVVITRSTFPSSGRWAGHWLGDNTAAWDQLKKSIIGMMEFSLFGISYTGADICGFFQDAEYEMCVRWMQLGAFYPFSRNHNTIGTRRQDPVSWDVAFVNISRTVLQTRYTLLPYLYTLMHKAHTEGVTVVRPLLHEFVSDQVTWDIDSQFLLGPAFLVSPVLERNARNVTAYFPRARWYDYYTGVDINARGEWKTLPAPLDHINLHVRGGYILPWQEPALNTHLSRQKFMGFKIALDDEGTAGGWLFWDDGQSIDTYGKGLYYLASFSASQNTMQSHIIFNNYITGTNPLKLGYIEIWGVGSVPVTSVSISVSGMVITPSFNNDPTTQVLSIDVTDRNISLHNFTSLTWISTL
structure (smiles),measurement,value
CC(C)=CCC/C(C)=C/Cc1c(O)cc(O)c(C(=O)/C=C/c2ccc(O)cc2)c1O,IC50,1080 nM
